The test system of one test is T. rubrum. The test is described as follows: PDT of T. rubrum on human stratum corneum (ex-vivo model), fungicidal effect. Format: cell-based, Trichophyton rubrum. Conditions: acidic pH versus pH 7.4. How it is done:
A polycarbonate membrane filter, 25 mm in diameter and a pore size of 2 μm (Whatman, Breda, The Netherlands) was placed in the central part of a 3 cm culture dish (Greiner, Alphen aan den Rijn, The Netherlands) filled with 5 ml of Malt Extract Agar (MEA). A circular piece of human stratum corneum (SC) with a diameter of 1 cm was subsequently placed on the membrane filter and both were gently brushed with a paintbrush dipped in 70% ethanol. A microconidia suspension isolated from Trichphyton rubrum (CBS nr. 304.60 obtained from Centraal Bureau voor Schimmelcultures, Utrecht, The Netherlands, and prepared as described by Smijs G. M. T. et al (2004) in “Photodynamic treatment of the dermatophyte Trichophyton Rubrum and its microconidia with porphyrin sensitizers. PhotoChemistry and PhotoBiology, 80, 197 - 202”) was diluted to 1000 CFU/ml and 15 μl was inoculated on the circular sheet of human SC. The dish was placed in an incubator at 28° C. and at 17 hours after spore inoculation photodynamic treatment (PDT) was applied.
At 17 hours after spore inoculation, the membrane filter with SC containing spore inoculates was transported from the MEA dish to a 3 cm culture dish filled with 1035 μl incubation medium. The incubation medium contained 1 ml of distilled water with an adjusted pH (3.5, 4.5, 5.2, or 7.4) and 35 μl of a Sylsens B stock solution (Buchem, Apeldoorn, the Nederland) . To optimize the contact of the inoculates with the incubation medium, the membrane filter with the SC was turned upside down during the incubation period of 2 hours. The incubation was performed under continuous shaking conditions. Shortly before the illumination period the membrane filter containing the SC was turned back (surface SC now faces the lamp). In all cases, the illumination time was 1 hour using a red light irradiance of 30 mW/cm^2. This corresponds to a light dose of 108 J/cm^2. After the illumination the membrane filter with the SC were transported to a fresh MEA dish, placed in a 28° C. incubator and fungal growth was followed for several weeks. Dark controls were included, i.e. the same procedure was carried out except that the inoculated microconidia on human skin were treated with solvent and/or photosensitizer in the dark. In the light controls, the microconidia were treated with solvent (only) in the presence of light. The efficacy of the treatment was expressed as a relative frequency of complete inactivation (killing) of fungal growth detected at day 8 after spore inoculation. This was assessed microscopically with the use of a Zeiss Axiovert 25 (Germany). […] The treatment effect was followed for a period of several months. Every experiment contained 4 to 6 duplicates of all conditions and the experiments were repeated 3 times at least.
PDT of T. rubrum 17 hours after spore inoculation using the ex-vivo model, different concentrations of Sylsens B and a different pH (water medium). The numbers indicate the relative frequency of the fungicidal effect^1. Numbers between brackets give the number of tests performed.
The experiment with Sylsens B was repeated more extensively, for a longer period of time and with more samples. More specifically, the photodynamic efficacy of Sylsens B towards T. rubrum was tested at 17 (FIG. 2a), 48 (FIG. 2b) and 72 hours (FIG. 2c) after spore inoculation on human SC, at the following incubation pH values: Filled diamonds: pH 3.5, filled squares: pH 5.2 and filled triangles: pH 7.4.

Test [1] concerns the fungus cultivated in suspension. The test is described as follows: binding of Sylsens B to the fungus cultivated in suspension / photodynamic effect with competing cations. In kind it is cell-based, T. rubrum. Conditions: Alcian Blue 160 μM versus Sylsens B 160 μM. As to the method: In the above experiments, deuteroporphyrin monomethylether (DP mme), an anionic porphyrin, was used as a control. […] The effect of calcium-ions was investigated by determining the photodynamic effect in the presence of 5 mM CaCl2 at pH 5.2. […] So, PDT may even be used to inactivate (kill) the growing fungus if measures are taken to prevent naturally present calcium from interfering with the treatment, in particular by using a chelating compound such as EDTA.

Consider `C[n+]1ccc(-c2c3nc(c(-c4cc[n+](C)cc4)c4ccc([nH]4)c(-c4cc[n+](C)cc4)c4nc(c(-c5cc[n+](C)cc5)c5ccc2[nH]5)C=C4)C=C3)cc1.[Cl-].[Cl-].[Cl-].[Cl-]` [meso-tetra(N-methyl-4-pyridyl)porphyrin tetrachloride, reference compound], for which the “effect of acidic pH on photodynamic activity” value in the test with T. rubrum is reported as “improved activity at acidic pH, albeit to a lesser extent than Sylsens B”.
For the compound Alcian Blue [reference compound], in test [1], the “competition for binding to the fungus” value was “competed with Sylsens B”.
As for “deuteroporphyrin monomethylether [DP mme, reference compound]”, the “effect of acidic pH on photodynamic activity” value with T. rubrum is listed as “failed to display the observed pH effect”.

The values are drawn from patent publication US20090264492A1, “PHARMACEUTICAL COMPOSITION FOR THE TREATMENT OF A FUNGAL SKIN DISORDER AND A METHOD FOR THE PREPARATION THEREOF” (Stichting Voor de Technische Wetenschappen, priority 2006, published 2009).
